Laboratory results published in patent US20120034641A1, “BIOLOGICAL INFORMATION ACQUISITION METHOD” (SONY CORPORATION, priority 2010, published 2012).

Assays:
[1] = intake of alcohol while eating vs no alcohol; FIG. 10
Procedure: The tip of index finger was gently wiped with a paper towel soaked with pure water. The bottom end of a microtube containing 50 μL of pure water was held with the thumb, with the upper opening of the microtube in contact with the tip of the index finger (see FIG. 1A). With the microtube held with the index finger and the thumb, the microtube was inverted to contact the pure water to the skin surface of the index finger for 1 minute.
Eleven subjects were allowed to eat the same food during the time period of from 12:00 to 13:00, and the epidermal fluid was collected at 12:00, 13:00, 14:00, 15:00, and 16:00.

[2] = system: three-dimensional culture skin (Kurabo; EPI-200X); assay: Nicotinamide metabolites on the epidermis surface of cultured skin after adding cortisol to the culture solution; assay type: cell-based; conditions: glucocorticoid (cortisol) 50 nM or 500 nM in culture solution, sample collected from epidermis side after 1 hour
Procedure: Assessment was made as to the ability of a cultured skin to secrete nicotinamide metabolites on the horny layer of epidermis surface in response to cortisol or glucose. A three-dimensional culture skin (Kurabo; EPI-200X) was cultured with its dermis side in contact with the culture solution. Glucocorticoid (cortisol) was added to the culture solution to make the final concentration 50 nM or 500 nM. After 1 hour, 150 μL of PBS was contacted to the epidermis side, and the sample was collected. The amounts of NAD+, NADH, NADP+, and NADPH in the sample were then measured using commercially available colorimetric analysis kits (Amplite Colorimetric NAD/NADH Assay Kit, Amplite Colorimetric NADP/NADPH Assay Kit; ABD Bioquest Inc.).

Row | SMILES | transient increase in NAD+/NADH ratio in epidermal fluid [1] | NAD+/NADH ratio ([2]; FIG. 12A) | NADP+/NADPH ratio ([2]; FIG. 12B)
1 | CCO [alcohol] | more enhanced |  | 
2 | C[C@]12CCC(=O)C=C1CC[C@@H]1[C@@H]2[C@@H](O)C[C@@]2(C)[C@H]1CC[C@]2(O)C(=O)CO [glucocorticoid, cortisol] |  | increased concentration dependently | no change
